Measured values taken from US7109190B2, “Carbacephem β-lactam antibiotics” (Trine Pharmaceuticals, Inc., priority 2003, dated 2006).
≈ marks a conversion by molar mass, not a printed value.

Assays:
MRSA COL = test: In vitro MIC by agar dilution against MRSA COL; type: cell-based; conditions: Staphylococcus aureus; MRSA COL isolate; read-out: MIC (μg/mL) MRSA COL
Excerpt: (§1) The in vitro MIC for bacterial isolates may be obtained in the following manner: a test compound is incorporated into a series of two-fold dilutions in liquified Mueller-hinton agar. Upon solidification, a number of different bacterial strains are spot-inoculated onto the surface of the agar. […] The procedures used in these experiments are generally those standardized by the National Committee for Clinical Laboratory Standards (NCCLS), as set forth in the NCCLS publication entitled “Methods for Dilution Antimicrobial Susceptibility Tests (1991), which is incorporated by reference as if fully set forth herein. The following exemplified such a procedure although it is to be understood that modifications of the procedure may be implemented as required.
(§2) Aliquots of the test compounds are prepared in phosphate buffered saline (PBS) at pH approximately 7.2. Tween 20 or dimethylsulfoxide (DMSO) are added if necessary to solubilize the compound and vortexing, sonicating and gentle heating may also be employed. Typically, the concentration of the stock solution is 10× that of the highest compound concentration to be used. Serial two-fold dilutions are prepared down to the lowest concentration to be tested. Each compound concentration is tested in duplicate. A control plate using a reference drug such as cefotaxime, vancomycin or imipenem is used as a postive control. A negative control plate containing no drug or compound is also prepared.
(§3) A few isolated colonies are retrieved from a pure culture prepared on agar plates and transferred to a tube of nutrient broth and allowed to grow at 35–36° C. until log-phase growth is achieved, usually about 4–6 hours. The broth is then added dropwise to PBS until the turbidity of the suspension matches a 0.5 McFarland standard which is equal to approximately 10^8 cfu/ml.
(§4) The test plates containing the compound dilutions and the control plates are then inoculated with the PBS suspension. The plates are then incubated for 16–20 hours at 35–36° C. The plates are then observed to determine which concentration of the test compound is the MIC.
(§5) It is expected that the compounds will be equally, if not more, potent against other resistant strains of bacteria as well as bacteria which are susceptible to current clinical antibiotics. The range of utility of the compounds herein can easily be established by those skilled in the art using the disclosures herein and all bacteria within the useful range are within the scope of this invention.

MRSA 76 = test: In vitro MIC by agar dilution against MRSA 76; type: cell-based; conditions: Staphylococcus aureus; MRSA 76 isolate; read-out: MIC (μg/mL) MRSA 76
Excerpt: as §1, §2, §3, §4, §5

human serum = test: Human serum binding (ultrafiltration, HPLC); type: in vitro ADME
Description: The following procedure may be used to evaluate serum binding: compounds are incubated in serum for 10 min at 37° C. in a shaking water bath. Then a serum ultrafiltrate is obtained by centrifugation of ultra-filtration units (Amicon Centrifree) for, say, 20 minutes at 25° C. Compound content in the ultrafiltrate is quantified by HPLC using standards prepared in blank ultra-filtrate undergoing similar processing.
as §5

MRSA = MRSA potency, background prior-art compounds; cited from earlier work
serum protein = conditions: background prior-art compounds; cited from earlier work

For `NCCSCc1cnccc1SC1=C(C(=O)O)N2C(=O)C(NC(=O)/C(=N\O)c3nc(N)sc3Cl)C2CC1` (stereo not drawn), which MIC (MRSA COL) is on record?
Its MIC is 1 µg/mL (≈ 1.71 µM).

What about the MIC (MRSA 76) of the same compound?
The MIC was 1 µg/mL (≈ 1.71 µM).

And the “Human Serum Binding” value (human serum)?
The value was 74.5%.

For `Nc1nc(/C(=N/OCCF)C(=O)N[C@@H]2C(=O)N3C(C(=O)O)=C(Sc4nc5cnccc5s4)CCC23)cs1` (stereo partly drawn) [compound (4)], which MIC (MRSA) is on record?
The MIC was 64 µg/mL (≈ 114 µM).

What about the serum binding (serum protein) of the same compound?
The serum binding was 36%.

With `Nc1nc(/C(=N/OCCF)C(=O)N[C@@H]2C(=O)N3C(C(=O)O)=C(Sc4nncs4)CCC23)cs1` (stereo partly drawn) [compound (2)] as the compound, how does the MIC (MRSA) read?
The MIC was 2 µg/mL (≈ 3.89 µM).

And the serum binding (serum protein)?
The serum binding was greater than 99.2%.

With `Nc1nc(/C(=N/OCCF)C(=O)N[C@@H]2C(=O)N3C(C(=O)O)=C(Sc4nc5ccc([N+](=O)[O-])cc5s4)CCC23)cs1` (stereo partly drawn) [compound (3)] as the compound, how does the MIC (MRSA) read?
Its MIC is 4 µg/mL (≈ 6.58 µM).

And the serum binding (serum protein)?
The serum binding was 99.6%.

Which MIC (MRSA COL) does the source give for `NCCSCc1ncccc1SC1=C(C(=O)O)N2C(=O)C(NC(=O)/C(=N\O)c3nc(N)sc3Cl)C2CC1` (stereo not drawn) here?
The MIC was 1 µg/mL (≈ 1.71 µM).

And the MIC (MRSA 76)?
The MIC was 2 µg/mL (≈ 3.42 µM).

What about the “Human Serum Binding” value (human serum) of the same compound?
The value was 89.4%.

What does the source list for `Nc1nnc(SC2=C(C(=O)O)N3C(=O)C(NC(=O)/C(=N\O)c4nc(N)sc4Cl)C3CC2)s1` (stereo not drawn)?
MIC (MRSA COL): 1 µg/mL (≈ 1.93 µM); MIC (MRSA 76): 2 µg/mL (≈ 3.87 µM); Human Serum Binding (human serum): 68.0%

With `Nc1nc(/C(=N/O)C(=O)NC2C(=O)N3C(C(=O)O)=C(Sc4nncs4)CCC23)c(Cl)s1` (stereo not drawn) as the compound, how does the MIC (MRSA COL) read?
The MIC was 2 µg/mL (≈ 3.98 µM).

And the MIC (MRSA 76)?
Its MIC is 2 µg/mL (≈ 3.98 µM).

What about the “Human Serum Binding” value (human serum) of the same compound?
The value was 66.9%.
